Assay results from the NIST ThermoML archive (doi:10.1016/j.fluid.2015.09.050).

Conditions: Liquid, pendant drop method

C [methane] + O
Conditions | interfacial tension [mN/m]
311 K, 3390 kPa | 66.03
311 K, 7540 kPa | 59.95
311 K, 14380 kPa | 57.94
311 K, 28210 kPa | 52.29
311 K, 44730 kPa | 51.43
311 K, 61300 kPa | 49.28
311 K, 81600 kPa | 50.39
373.2 K, 3650 kPa | 54.76
373.2 K, 10070 kPa | 50.64
373.2 K, 21140 kPa | 48.29
373.2 K, 30540 kPa | 45.02
373.2 K, 51020 kPa | 42.2
373.2 K, 60310 kPa | 41.61
373.2 K, 71050 kPa | 41.92
373.2 K, 82760 kPa | 41.93
423.2 K, 2740 kPa | 49.23
423.2 K, 7290 kPa | 46.41
423.2 K, 17170 kPa | 42.69
423.2 K, 27790 kPa | 40.72
423.2 K, 38470 kPa | 38.35
423.2 K, 48440 kPa | 39.43
423.2 K, 62280 kPa | 38.6
423.2 K, 75910 kPa | 39.19
423.2 K, 89770 kPa | 38.67
473.2 K, 2410 kPa | 40.35
473.2 K, 14090 kPa | 34.86
473.2 K, 21220 kPa | 34.2
473.2 K, 34790 kPa | 32.44
473.2 K, 51540 kPa | 30.53
473.2 K, 70120 kPa | 31.46
473.2 K, 83440 kPa | 30.74
